Results on 38 compounds are retold here after US6465228B1, “Levodione reductase” (Roche Vitamins, Inc., priority 1999, dated 2002).

The subject of assay [1] is Corynebacterium aquaticum AKU611. Description: Biolog System assimilation of carbon sources. The note with it: 96-well plate, BUGM+B medium, 24 hours at 28° C. The class given is cell-based. From the text:
Each well contained one of the 96 types of carbon sources in BUGM+B medium (Biolog Universal Growth Media+Blood) (Biolog Inc.).

Assay [2] deals with T1, levodione reductase (Leifsonia aquatica, UniProt Q9LBG2).
T1 construct: The LR is isolated and purified from the cell-free extract of disrupted cells; made in house; host or cells: Corynebacterium aquaticum AKU611 (FERM BP-6448); This is the natural producer and there was no recombinant expression; The enzyme was purified by ammonium sulfate precipitation and DEAE-Sephacel, alkyl Superose and MONO Q chromatography
T1 sequence (Q9LBG2 1-267): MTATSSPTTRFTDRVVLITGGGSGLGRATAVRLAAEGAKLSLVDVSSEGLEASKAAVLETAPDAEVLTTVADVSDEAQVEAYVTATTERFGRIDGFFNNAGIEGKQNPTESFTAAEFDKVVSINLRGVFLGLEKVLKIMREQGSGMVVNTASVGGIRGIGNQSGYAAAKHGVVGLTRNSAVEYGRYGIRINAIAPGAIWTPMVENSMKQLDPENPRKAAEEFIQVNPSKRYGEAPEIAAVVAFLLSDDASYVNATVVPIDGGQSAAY
The class given is biochemical, Corynebacterium aquaticum AKU611. The procedure: A basal reaction mixture having a total volume of 500 μl includes 100 μl of 1 M potassium phosphate buffer (pH 7.0), 20 μl of 8 mM NADH in 0.2 mM KOH, 10-40 μl of the enzyme solution (i.e., levodione reductase), and water up to a total of 500 μl . This reaction mixture was incubated for 1 minute at 37 ° C. Then, 2 μl of 0.5 M levodione solution were added to give a final concentration of 2 mM, and the whole mixture was incubated for 1 minute at 37 ° C. The levodione reductase enzyme activity was monitored with the decrease of the absorbance of NADH at 340 nm.

Assay [3] addresses T1, levodione reductase. The assay can be described thus: Co-factor requirement / identification of reaction product. The following applies: for function as co-factor / electron donor: reduction of levodione to actinol. The class given is biochemical, Corynebacterium aquaticum AKU611. The procedure: […] To this reaction mixture, 10 Al of a 0.5 M levodione solution were added five times at 6 minute intervals. The reaction mixture was incubated for a further 5 minutes, and extracted with 1 ml of ethyl acetate. The extract was analyzed by gas chromatography (column: HR-20M (Shinwa, Kyoto, Japan) 0.25 mm Ø×30 m), column temperature: 160° C. (constant), injector temperature: 250° C., carrier gas: He (about 1 ml/min.). As a result, the product was identified as being actinol in comparison with a standard sample of actinol.

[4] abbreviates: Table 4-1, + 3 mM NaCl, metal 100 mM.
Where [5] appears, read: Table 4-1, + 3 mM NaCl, metal 200 mM.
[6] abbreviates: Table 4-1, + 3 mM NaCl, metal 400 mM.
[7] abbreviates: Table 4-1, + 3 mM NaCl, metal 800 mM.
The mark [8] stands for this setting: Table 4-1, + 3 mM NaCl, metal 1600 mM.
The mark [9] stands for this setting: Table 4-1, + 3 mM NaCl, metal 1800 mM.
Setting [10] is: Table 4-1, + 3 mM NaCl, metal 2000 mM.
Where [11] appears, read: Table 4-1, + 3 mM NaCl, metal 2500 mM.
Where [12] appears, read: Table 4-1, + 3 mM NaCl, metal 3000 mM.

Entries after “also recorded” stand apart in the source; their conditions may differ. Read-outs that look alike come from different tables or passages of the source.

Consider Dextrin [A4], for which the Assimilation entry in assay [1] is “−”.
On to `[Cl-].[Na+]` [NaCl], for which the “Relative Activity” value at levodione reductase [2] (Table 4-1, Tris-HCl pH 7.5, metal 3 mM) is 0.4%; on levodione reductase [2] (Table 4-2, metal 100 mM), 4.2%; on levodione reductase [2] (Table 4-2, metal 200 mM), 7.7%; on levodione reductase [2] (Table 4-2, metal 400 mM), 19.7%; on levodione reductase [2] (Table 4-2, metal 800 mM), 35.9%; at levodione reductase [2] (Table 4-2, metal 1600 mM), 75.3%. Further, the “Relative Activity” value at levodione reductase [2] (Table 4-2, metal 1800 mM) stood at 62.8%; on levodione reductase [2] (Table 4-2, metal 2000 mM), 62.8%; at levodione reductase [2] (Table 4-2, metal 2500 mM) it was 53.9%; at levodione reductase [2] (Table 4-2, metal 3000 mM), 34.1%.
Regarding Glycogen [A5], the Assimilation result in assay [1] is listed as “−”.
On the same count and under the same terms, the same measure for Mannan [A7]: “−”; for `O=C(CO)[C@@H](O[C@H]1O[C@H](CO)[C@@H](O)[C@H](O)[C@H]1O)[C@H](O)[C@H](O)CO` [E3, Turanose]: “+”.
On to `O[C@H]1[C@H](O)[C@@H](O)[C@H](O)[C@@H](O)[C@H]1O` [B12, m-inositol], for which the Assimilation entry in assay [1] was “−”.
`OC[C@H]1O[C@H](OC[C@H]2O[C@H](O[C@]3(CO)O[C@H](CO)[C@@H](O)[C@@H]3O)[C@H](O)[C@@H](O)[C@@H]2O)[C@H](O)[C@@H](O)[C@H]1O` [D5, D-raffinose]: the Assimilation result in assay [1] was “+”.
Same read-out and setting: the same measure for `OC[C@H]1O[C@@H]2O[C@H]3[C@H](O)[C@@H](O)[C@@H](O[C@H]4[C@H](O)[C@@H](O)[C@@H](O[C@H]5[C@H](O)[C@@H](O)[C@@H](O[C@H]6[C@H](O)[C@@H](O)[C@@H](O[C@H]7[C@H](O)[C@@H](O)[C@@H](O[C@H]1[C@H](O)[C@H]2O)O[C@@H]7CO)O[C@@H]6CO)O[C@@H]5CO)O[C@@H]4CO)O[C@@H]3CO` [A2, α-cyclodextrin]: “−”; for `O=P(O)(O)O[C@H]1O[C@H](CO)[C@@H](O)[C@H](O)[C@H]1O` [H10, Glucose-1-phosphate]: “−”.
In the case of `Cl.N` [NH4Cl], the “Relative Activity” value on levodione reductase [2] (Table 4-2, metal 100 mM) amounted to 6.4%; on levodione reductase [2] (Table 4-2, metal 200 mM), 21.3%; on levodione reductase [2] (Table 4-2, metal 400 mM) it was 39.3%; at levodione reductase [2] (Table 4-2, metal 800 mM), 67.1%; on levodione reductase [2] (Table 4-2, metal 1600 mM) it was 100%; on levodione reductase [2] (Table 4-2, metal 1800 mM), 75.3%.
On to `OC[C@H]1O[C@H](OC[C@H]2OC(O)(CO)[C@@H](O)[C@@H]2O)[C@H](O)[C@@H](O)[C@@H]1O` (stereo partly drawn) [D3, Palatinose], for which, in assay [1], the Assimilation result is recorded as “+”.
On the same count and under the same terms, the same measure for `O=C(O)C[C@H](O)C(=O)O` [F5, L-malic acid]: “−”; for `NCCCCN` [G10, Putrscine]: “−”.
Still for that read-out and setting: the same measure for `COC1OC(CO)C(O)C(O)C1O` [C9, α-methyl-D-galactoside]: “−”.
For the compound `[Cl-].[Rb+]` [RbCl], the “increase of enzyme activity” value at levodione reductase [2] (3 M RbCl) is reported as “about 250 fold”. In addition, the “Relative Activity” value is 6.4% at levodione reductase [2] (setting [4]); 7.5% on levodione reductase [2] (setting [5]); 23.3% on levodione reductase [2] (setting [6]); 32.6% on levodione reductase [2] (setting [7]); 66.4% on levodione reductase [2] (setting [8]); 65.1% on levodione reductase [2] (setting [9]). Moreover, the “Relative Activity” value on levodione reductase [2] (setting [10]) came out at 93.2%; on levodione reductase [2] (setting [11]) it was 93.3%; on levodione reductase [2] (setting [12]), 100%.
With `COC1OC(CO)C(O)C(O)C1O` [D2, α-methyl-D-mannoside], the Assimilation result in assay [1] is on record as “−”.
On the same count and under the same terms, for `O=P(O)(O)OCC(O)CO` (racemic) [H12, DL-α-glycerol phosphate] the value was “−”.
On to `[Cl-].[K+]` [KCl], for which the “Relative Activity” value at levodione reductase [2] (Table 4-2, metal 200 mM) amounted to 11.5%; at levodione reductase [2] (Table 4-2, metal 400 mM), 22.2%; at levodione reductase [2] (Table 4-2, metal 800 mM), 40.5%; on levodione reductase [2] (Table 4-2, metal 1600 mM) it was 45.3%; on levodione reductase [2] (Table 4-2, metal 1800 mM), 33.5%; at levodione reductase [2] (Table 4-2, metal 2000 mM) it was 28.4%. Moreover, the “Relative Activity” value at levodione reductase [2] (Table 4-2, metal 2500 mM) is given as 25.9%; on levodione reductase [2] (Table 4-2, metal 3000 mM) it was 25.2%.
Turning to `[Cl-].[Cs+]` [CsCl], on levodione reductase [2] (1.8 M CsCl), the “increase of enzyme activity” value is listed as “about 250 fold”. Besides, the “Relative Activity” value at levodione reductase [2] (setting [4]) was 5.9%; at levodione reductase [2] (setting [5]) it was 14.3%; on levodione reductase [2] (setting [6]), 28.3%; on levodione reductase [2] (setting [7]) it was 48.1%; on levodione reductase [2] (setting [8]), 71.4%; on levodione reductase [2] (setting [9]) it was 100%. Moreover, the entries for the “Relative Activity” value at levodione reductase [2] (setting [10]), on levodione reductase [2] (setting [11]) and on levodione reductase [2] (setting [12]) were 86.8%, 88.4% and 88.0%, respectively.
Take `C[C@H](O)C(=O)O` [F3, L-lactic acid]: the Assimilation entry in assay [1] is listed as “−”.
Still for that read-out and setting: the same measure for `CO[C@H]1O[C@H](CO)[C@@H](O)[C@H](O)[C@H]1O` [C12, α-methyl-D-glucoside]: “−”; for `O=C1CC[C@@H](C(=O)O)N1` [G8, L-pyloglutamic acid]: “−”; for `OC[C@H]1O[C@H](OC[C@H]2OC(O)[C@H](O)[C@@H](O)[C@@H]2O)[C@H](O)[C@@H](O)[C@H]1O` (stereo partly drawn) [C8, D-melibiose]: “+”.
The same measure, in the same setting: the same measure for `OC[C@H]1O[C@H](OC[C@H]2O[C@H](OC[C@H]3O[C@H](O[C@]4(CO)O[C@H](CO)[C@@H](O)[C@@H]4O)[C@H](O)[C@@H](O)[C@@H]3O)[C@H](O)[C@@H](O)[C@H]2O)[C@H](O)[C@@H](O)[C@H]1O` [D11, Stachyose]: “+”; for `CO[C@@H]1O[C@H](CO)[C@@H](O)[C@H](O)[C@H]1O` [D1, β-methyl-D-glucoside]: “−”.
Same read-out and setting: the same measure for TWEEN ® 80 [A9]: “+”; for `O=C(O)C[C@@H](O)C(=O)O` [F4, D-malic acid]: “−”.
Take TWEEN ® 40 [A8]: the Assimilation entry in assay [1] is recorded as “+”.
Same read-out and setting: for `OC[C@H]1O[C@H](O[C@H]2O[C@H](CO)[C@@H](O)[C@H](O)[C@H]2O)[C@H](O)[C@@H](O)[C@@H]1O` [E2, D-trehalose] the value was “−”.
Take `NC(=O)C1=CN([C@@H]2O[C@H](COP(=O)(O)OP(=O)(O)OC[C@H]3O[C@@H](n4cnc5c(N)ncnc54)[C@H](O)[C@@H]3O)[C@@H](O)[C@H]2O)C=CC1` [NADH]: the “function as co-factor / electron donor” value at levodione reductase [3] is listed as “could serve as a co-factor”.
As to `OC[C@@H](O)C(O)[C@H](O)CO` [B2, D-arabitol], in assay [1], the Assimilation result is “+”.
Same read-out and setting: the same measure for `OC[C@H]1O[C@H](O[C@H]2[C@H](O)[C@@H](O)[C@@H](O[C@H]3[C@H](O)[C@@H](O)C(O)O[C@@H]3CO)O[C@@H]2CO)[C@H](O)[C@@H](O)[C@@H]1O` (mixture of isomers) [C4, Maltotriitrose]: “+”; for `OC[C@H]1O[C@@](CO)(O[C@H]2O[C@H](CO)[C@@H](O)[C@H](O)[C@H]2O)[C@@H](O[C@H]2O[C@H](CO)[C@@H](O)[C@H](O)[C@H]2O)[C@@H]1O` [C7, D-melezitose]: “−”; for `COC1OC(CO)C(O)C(O)C1O` [C10, α-methyl-D-galactoside]: “−”.
Same read-out and setting: for `OC[C@H]1O[C@@H]2O[C@H]3[C@H](O)[C@@H](O)[C@@H](O[C@H]4[C@H](O)[C@@H](O)[C@@H](O[C@H]5[C@H](O)[C@@H](O)[C@@H](O[C@H]6[C@H](O)[C@@H](O)[C@@H](O[C@H]7[C@H](O)[C@@H](O)[C@@H](O[C@H]8[C@H](O)[C@@H](O)[C@@H](O[C@H]1[C@H](O)[C@H]2O)O[C@@H]8CO)O[C@@H]7CO)O[C@@H]6CO)O[C@@H]5CO)O[C@@H]4CO)O[C@@H]3CO` [A3, β-cyclodextrin] the value was “−”.
In the case of `NC(=O)C1=CN([C@@H]2O[C@H](COP(=O)(O)OP(=O)(O)OC[C@H]3O[C@@H](n4cnc5c(N)ncnc54)[C@H](OP(=O)(O)O)[C@@H]3O)[C@@H](O)[C@H]2O)C=CC1` [NADPH], on levodione reductase [3] (NADH replaced with NADPH, 30° C.), the “actinol detected by gas chromatography” value is “only a trace amount of actinol was detected”. The “function as co-factor / electron donor” value on levodione reductase [3] was “does not work as an electron donor; also recorded: could not”.
Inulin [A6]: in assay [1], the Assimilation result is “−”.
Still for that read-out and setting: the same measure for `OC[C@@]12OC[C@@H](O1)[C@@H](O)[C@@H](O)[C@@H]2O` [D9, Sedoheputulosan]: “−”.
